Data published in patent US5661182A, “Method for lowering oxygen affinity of hemoglobin in redcell suspensions, in whole blood and in vivo” (Virginia Commonwealth University, priority 1995, dated 1997).
Entries after “also recorded” stand apart in the source; their conditions may differ.

Legend:
[1] = biological target: HbA (normal adult hemoglobin) (Homo sapiens, UniProt P68871+P69905); test: Oxygen equilibrium of isolated human Hb solutions (HbA p50); assay type: biochemical; conditions: human Hb solution; for p50 shift at increasing chloride concentration: 0.5 mM, chloride 0-400 mM; for HbA(p50): effector 0.5 mM, pH 7.2, 100 mM NaCl, 25 °C
Text: (§1) L3,5 and L3,4,5 were provided by Dr. Lalezari (Montefiore Hospital, New York); RSR-4 [2-[4-[[(3,5-dichloroanilino)carbonyl]methyl]phenoxy]-2-methylpropionic acid]and RSR13 [2-4-[[(3,5- dimethylanilino)carbonyl]methyl]phenoxy]-2-methylpropionic acid] have been synthesized following the procedure described in Randad et al. (J. Med. Chem. 34,752 (1991)). Human serum albumin (HSA), bovine serum albumin (BSA) and 4,4'diisothiocyanatostilbene-2,2'-disulfonate (DIDS) were purchased from Sigma (St. Louis, Mo.). Due to their low solubility in aqueous buffer, 10 mM stock solutions of the compounds were prepared in a slight exccess of sodium bicarbonate and back-titrated to pH 7.4. For example, RSR-4 or RSR-13 was dissolved at 60° C. in a 140 mM NaCl and 50 mM bis-Tris buffer at room temperature upon progressive addition of NaHCO3 to obtain 10 mM stock solutions. The pH was carefully adjusted to 7.4 after complete solubilization and before use of the solutions. Fresh solutions were prepared each week. Stock solutions of DIDS (1 mM) were prepared, in the dark, on the day of the experiments in a pH 7.4 buffer. Human serum albumin (defatted HSA) and bovine serum albumin (BSA) were prepared freshly as 1 mM stock solutions, pH 7.4. Equilibrium Measurements. The allosteric modulation of the effectors on freshly prepared solutions of hemoglobin or red cell suspensions was measured by the change in p50, the partial pressure of oxygen for half-saturation. Oxygen equilibrium curves (OEC) were carried out with the Hemox analyzer (TCS, Southampton, Pa.) under the following conditions: pH 7.4, 140 mM NaCl and 50 mM bis-Tris buffer at 37° C. In all experiments, the concentration of hemoglobin in the red cell suspensions was 20-25 μM hemoglobin tetramer (Hb4) as measured by Drabkin's method (cyanomethemoglobin) at the end of each recording. The final concentration of the allosteric effector in the cuvette was 0.5 mM, resulting in an effector/Hb4 ratio of 20 in the absence of albumin. OEC were also made in the same buffer containing 12.5, 25, 50, and 100 μM HSA (for human red cell suspensions) or BSA (for bovine cell suspensions). The serum albumin experiments were carried out with traces of an antifoaming agent. This agent has no deleterious effect on the red cell suspensions. The molar ratio of albumin to tetrameric hemoglobin was varied from 0.5 (at 12.5 μM HSA) to 4 (at 100 μM HSA); in whole blood this ratio is approximately 0.3 (0.7 mM albumin plus plasma proteins/2.25 mM Hb4). Therefore, the concentration of albumin used in the present studies was always larger relative to tetrameric hemoglobin than that found in whole blood.
Bovine Red Cell Studies. […]

deoxyhemoglobin = deoxyhemoglobin (Homo sapiens, UniProt P68871+P69905); test: X-ray crystallographic studies with deoxyhemoglobin; assay type: binding
Description: X-ray Crystallographic Studies. Hemoglobin for the crystal studies was prepared from human blood, and T-state deoxy crystals were obtained from ammonium sulfate solutions. RSR-4 or RSR-13 (2 effectors/I Hb) was dissolved in a slight excess of sodium bicarbonate to facilitate dissolution and was added to a 6 g % solution of deoxy-Hb in the glove box. A 1 g % Hb RSR-4 or RSR-13 solution was added to each crystallization tube. Crystals grew in approximately 1 week. X-ray data were collected with Friedel pairs using ω scans on a Rigaku AFC5R diffractometer equipped with a rotating anode and a 60-cm long evacuated beam tunnel. The crystals with allosteric effectors were isomorphous with native deoxy-Hb: RSR-4, 63.2, 83.7, and 53.8 Å, 99.4°; RSR-13, 63.2, 83.6, and 53.7 Å, 99.5°. Data collection (RSR-4 to 2.4-Å and RSR-13 to 2.8-Å resolution) was controlled by TEXAN software from Molecular Structure Corp. (The Woodlands, Tex.). There was little radiation damage to crystals, and new crystals were mounted when standard reference reflection intensities fell by 10%. All data were corrected for radiation damage when appropriate. The R-factors for the Friedel pairs and derivatives vs. native were as follows: RSR-4 (2.4 Å), 14.6% and 18.9%, and RSR-13 (2.8 Å), 7.2% and 12.5%, respectively. The difference electron density maps were obtained using the Cambridge computer programs (CCP4). […] The allosteric effector molecules were well resolved and easily fit to the difference density.

[2] = biological target: hemoglobin in red cell suspensions (Homo sapiens, UniProt P68871+P69905); test: Allosteric effector activity in the presence of serum albumin in buffered red cell suspensions (FIG. 3); assay type: cell-based; conditions: for effector activity in the presence of serum albumin: FIG. 3, effector 0.5 mM (L3,4,5 0.25 mM)
Text: as §1, with “OEC were also made in the same buffer containing 12.5, 25, 50, and 100 μM HSA (for human red cell suspensions) or BSA (for bovine cell suspensions). The serum albumin experiments were carried out with traces of an antifoaming agent. This agent has no deleterious effect on the red cell suspensions. The molar ratio of albumin to tetrameric hemoglobin was varied from 0.5 (at 12.5 μM HSA) to 4 (at 100 μM HSA); in whole blood this ratio is approximately 0.3 (0.7 mM albumin plus plasma proteins/2.25 mM Hb4). Therefore, the concentration of albumin used in the present studies was always larger relative to tetrameric hemoglobin than that found in whole blood.” left out

Row | p50 shift at increasing chloride concentration [1] | HbA(p50) [1] | allosteric effector activity ([2]; 0.5 mM effector, in the presence of 50 μM albumin) | Compound | second symmetry-related pair of binding sites (deoxyhemoglobin; near Arg 104β) | effector activity in the presence of serum albumin [2] | binding site in deoxyhemoglobin crystal (deoxyhemoglobin)
1 | identical at all chloride concentrations | 47 mmHg |  | CC(C)(Oc1ccc(NC(=O)Nc2cc(Cl)cc(Cl)c2)cc1)C(=O)O [L3,5, reference compound] | have a second symmetry-related pair of binding sites near Arg 104β |  | 
2 | identical at all chloride concentrations | 35.5 mmHg |  | CC(C)(Oc1ccc(CC(=O)Nc2cc(Cl)cc(Cl)c2)cc1)C(=O)O [RSR-4, 2-[4-[[(3,5-dichloroanilino)carbonyl]methyl]phenoxy]-2-methylpropionic acid] |  | greater than L3,5 and L3,4,5 at all serum albumin/Hb ratios studied | 
3 |  |  | greater than 90% | Cc1cc(C)cc(NC(=O)Cc2ccc(OC(C)(C)C(=O)O)cc2)c1 [RSR-13] |  | practically unaffected by serum albumin; also recorded: by far the least affected by serum albumin inhibition | bind in the central water cavity in a conformation identical to that found for RSR-4
